Test results from patent US7662853B2, “Monoacetyldiacylglycerol derivative for the treatment of sepsis” (priority 2004, dated 2010).

How the values were obtained:
T-cells [1] = assay: T-cell proliferation (3H-thymidine incorporation, SI); assay type: cell-based, C57BL/6 mice; conditions: 7th day
Text: Splenocytes were collected from C57BL/6 mice (provided from Asan Institute for Life Sciences Animal Lab., Seoul, Korea) spleens. Then, single cell suspensions were obtained by repeated aspiration and flushing. Red blood cells were removed using ammonium chloride and then passed through nylon wool to remove debris and clumps. T-cells were purified using magnetic bead (MACS bead, Miltenyi Biotec, bergich gladbach, Germany) containing anti-goat IgG MACS bead, Miltenyi Biotec, bergich gladbach, Germany) or anti-mouse CD4 (MACS bead, Miltenyi Biotec, bergich gladbach, Germany) or anti-mouse CD8 antibody (MACS bead, Miltenyi Biotec, bergich gladbach, Germany) (Turner and Dockrell (1996) Immunology, 87: 339-342).
T cell suspensions were suspended in Isocove's modified Dulbecco's medium (IMDM, Gibco, Grand Island, N.Y.) supplemented with 10% fetal bovine serum (referred as ‘FBS’ hereinafter) (Gibco, Grand Island, N.Y.). […] On the 6th day, cells were incubated with 1 μCi ^3H-thymidine/well for 24 hours. On the 7th day, the cells were harvested and the […] (referred as ‘SI’ hereinafter) was calculated by the following Mathematical Formula 1. SI=^3H-thymidine absorbed by wells of experimental group (CPM in sample)/^3H-thymidine absorbed by wells of control group (CPM in control) [Mathematical Formula 1]

T-cells [2] = assay: Measurement of cytokine by Bio-plex in activated T-cells; assay type: cell-based; conditions: anti-CD3, anti-CD28 treated T-cells, 0.1, 1 μg/ml, 5 days, vs control
Procedure: Bio-plex can measure huge amount of cytokine at a time in a well. Thus, Bio-plex kit was used to quantify 8 kinds of cytokines of Th1/Th2 channels, which are secreted when T-cells are activated. Sterilized 24-well tissue culture plate (Nunc, Denmark) was treated with anti-CD3 and anti-CD28. Then, the plate was inoculated with T-cells by 2×10^6 cells/ml. […] On the 5th day, culture solutions at each different stage were recovered, followed by centrifugation. Supernatants were obtained and cytokine secreted therein was quantified by using Bio-plex kit according to the manufacturer's instruction (Bio-rad).

KIBG-5 cells = assay: Biliary cancer model in hamster (7 treatment groups); assay type: in vivo, Syrian golden hamsters; conditions: Compound 3 25 mg/kg/day P.O.
Procedure: Six week old female Syrian golden hamsters (Harlan, Indianapolis, […], USA) were housed in specific pathogen free unit. 5×10^5 KIBG-5 cells (Molecular therapy, Vol. 3, No. 4, pp 431-437) suspended in 100 μl of RPMI 1640 serum-free medium were intravenously injected via femoral vein. And 5×10^5 KIBG-5 cells suspended in 100 μl of RPMI 1640 serum-free medium were subcutaneously injected to the flank of the hamsters. Hamsters injected KIBG-5 were divided into following 7 groups;
1) Control group treated with RPMI medium,
2) Experimental group treated with non-modified BMSC cells (2.5×10^6) (Leukemia & Lymphoma, Vol. 44, No. 11, pp 1973-1978),
3) Experimental group treated with BMSC cells modified with Ad/ΔE1 50 MOI (Leukemia & Lymphoma, Vol. 44, No. 11, pp 1973-1978),
4) Experimental group treated with DC+ tumor lysate (5×10^6),
5) Experimental group treated with BMSC cells modified with Ad/hIL-2 50 MOI (Leukemia & Lymphoma, Vol. 44, No. 11, pp 1973-1978),
One week after the injection of cancer cells to hamsters (BMSC treated group), 2.5×10^6 of BMSC cells were injected once again to each hamster. In the case of DC+tumor lysate treated group, 5×10^6 of DC cells and tumor lysate were injected to each hamster (with subcutaneous injection or intravenous injection) at the first, second, third, forth, sixth, eighth week, followed by observation for 12 weeks.

B16F10 cells = assay: Melanoma model in mice; assay type: in vivo, C57BL/6 mice; conditions: Compound 3 50 mg/kg/day P.O.
Procedure: 6 week female C57BL/6 mice (provided from Asan Institute for Life Sciences Animal Lab., Seoul, Korea) were housed in specific pathogen free unit.
B16F10 cells (2×10^4) suspended in 100 μl of RPMI 1640 serum-free medium were intravenously injected via tail vein. One week before tumor cell injection, the following 3 groups were treated.
2) Dendritic cells (DC) (5×10^5 cells/day)+tumor lysate treated group
In the case of DC+tumor lysate treated group, one week before melanoma injection, 5×10^5 DC cells mixed with tumor lysate were injected to the abdominal cavity every 1 weeks. […] As a result, gross findings at 4th week control group observed multiple metastatic lesions in both lungs.

malignant melanoma cells = assay: Cytotoxicity of T-cells activated by Compound 3 to malignant melanoma cells; assay type: cell-based; conditions: ratio of T-cells activated by Compound 3 to melanoma cells 100:1; FIG. 16: 1 μg/ml
[3] = Toxicity test, single oral administration; assay type: in vivo; conditions: mouse, in vivo; ICR mice, oral, single dose, 14 days
Procedure: (§1) Control group was treated 5% ethanol solution. IRC mice, housed in SPF facility were used as test animals. […] Weight increment rate(%)={Weight of day 14−Weight of day 0}÷{Weight of day 0}×100 [Mathematical Formula 2]

ICR mice = assay: Toxicity test, single oral administration; assay type: in vivo; conditions: for Number of dead mice/Number of orally administered mice: 14 days
Procedure: as §1

rats = assay: Long term hepatotoxicity test; assay type: in vivo; conditions: 100 mg/Kg body weight/day P.O. for 4 weeks
Text: At the end of 4 weeks liver histology was observed.

[4] = system: C3H/HeN mice with CLP-induced septic shock; assay: CLP (Cecal Ligation and Puncture) test, septic shock; assay type: in vivo; conditions: 50 mg/kg oral
Text: Ten 7-10 week old male inbred C3H/HeN mice (20-25 g of weight) were grouped. […] Septic shock was induced by CLP model in anesthetized mice. […] Control group was orally administered PBS+5% ethanol solution.

Question: With `CCCCC/C=C\C/C=C\CCCCCCCC(=O)OC(COC(C)=O)COC(=O)CCCCCCCCCCCCCCC` (centres unmarked) [Compound 3] as the compound, how does the SI (T-cells [1]; 0.01 μg/ml) read?
Answer: Its SI is 1.83 ± 0.32.

Question: And the SI (T-cells [1]; 0.1 μg/ml)?
Answer: The SI was 1.96 ± 0.18.

Question: And the “amounts of secreted cytokines IL-2, IL-4 and IL-5” value (T-cells [2])?
Answer: The value was “bigger than those in a control group”.

Question: And the tumor formation (KIBG-5 cells; 4 weeks after cancer cell injection)?
Answer: Its tumor formation is “no tumor were found”.

Question: What about the metastatic lung lesions (KIBG-5 cells; 8 weeks after cancer cell injection (i.v.)) of the same compound?
Answer: The metastatic lung lesions was “only one minute lung lesion was found”.

Question: And the “gross findings, metastatic lesions in the lung” value (B16F10 cells; 4th week after B16F10 i.v. injection)?
Answer: Its value is “no evidence of disease in the lung”.

Question: And the Survival rate (B16F10 cells; observation for 6 weeks after melanoma (B16F10) injection)?
Answer: The Survival rate was 90%.

Question: What about the cytotoxicity increased (malignant melanoma cells) of the same compound?
Answer: The cytotoxicity increased was 42%.

Question: And the LD50 at 14 days [3]?
Answer: The LD50 at 14 days was over 2000 mg/kg.

Question: What about the Death rate (ICR mice; 62.5 mg/kg oral once) of the same compound?
Answer: The Death rate was 12.5%.

Question: What about the “Number of dead mice/Number of orally administered mice” value (ICR mice; 62.5 mg/kg oral once) of the same compound?
Answer: Its value is 1/8.

Question: And the toxicity (ICR mice; 62.5 mg/kg˜2 g/kg oral once, 14 days observation)?
Answer: Its toxicity is “No toxicity was seen”.

Question: And the Death rate (ICR mice; 125 mg/kg oral once)?
Answer: The Death rate was 30%.

Question: What about the “Number of dead mice/Number of orally administered mice” value (ICR mice; 125 mg/kg oral once) of the same compound?
Answer: The value was 0/8.

Question: And the Death rate (ICR mice; 250 mg/kg oral once)?
Answer: The Death rate was 12.5%.

Question: What about the “Number of dead mice/Number of orally administered mice” value (ICR mice; 250 mg/kg oral once) of the same compound?
Answer: The value was 1/8.

Question: And the Death rate (ICR mice; 500 mg/kg oral once)?
Answer: The Death rate was 22.2%.

Question: And the “Number of dead mice/Number of orally administered mice” value (ICR mice; 500 mg/kg oral once)?
Answer: The value was 2/9.

Question: What about the Death rate (ICR mice; 1000 mg/kg oral once) of the same compound?
Answer: The Death rate was 0%.

Question: What about the “Number of dead mice/Number of orally administered mice” value (ICR mice; 1000 mg/kg oral once) of the same compound?
Answer: Its value is 0/9.

Question: What about the Death rate (ICR mice; 2000 mg/kg oral once) of the same compound?
Answer: The Death rate was 0%.

Question: And the “Number of dead mice/Number of orally administered mice” value (ICR mice; 2000 mg/kg oral once)?
Answer: Its value is 0/9.

Question: What about the “adverse effect (liver function test, lipid profile, cytochrome C-450 activity, liver histology)” value (rats) of the same compound?
Answer: Its value is “No significantly adverse effect was observed”.

Question: And the Survival rate ([4]; 0 hour)?
Answer: Its Survival rate is 100%.

Question: What about the Survival rate ([4]; 24 hours) of the same compound?
Answer: Its Survival rate is 100%.

Question: And the Survival rate ([4]; 48 hours)?
Answer: The Survival rate was 100%.

Question: What about the Survival rate ([4]; 72 hours) of the same compound?
Answer: The Survival rate was 100%.

Question: And the Survival rate ([4]; 96 hours)?
Answer: Its Survival rate is 100%.

Question: What about the Survival rate ([4]; 120 hours, 50 mg/kg) of the same compound?
Answer: Its Survival rate is 100%.
